Laboratory results taken from PubChem BioAssay (NCI).
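Where inhibition never reached the appropriate level, the endpoint shown equals the highest concentration tested. Otherwise, values were interpolated linearly from a five-concentration, 48-hour dose response in 96-well plates. GI50 = concentration required for 50% inhibition of growth. At the TGI there is no net growth.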

What was measured:
Assay in all cases: NCI tumour cell line growth inhibition, 48 h
A549 NSCLC = system: A549 NSCLC
ACHN renal = system: ACHN renal
UACC-62 melanoma = system: UACC-62 melanoma
SN12C renal = system: SN12C renal
HL-60(TB) leukemia = system: HL-60(TB) leukemia
HCT-116 colon = system: HCT-116 colon
SK-MEL-28 melanoma = system: SK-MEL-28 melanoma
HCT-15 colon = system: HCT-15 colon
HOP-62 NSCLC = system: HOP-62 NSCLC
CCRF-CEM leukemia = system: CCRF-CEM leukemia

SMILES | GI50 (A549 NSCLC) | TGI (A549 NSCLC) | GI50 (ACHN renal) | TGI (ACHN renal) | GI50 (UACC-62 melanoma) | TGI (UACC-62 melanoma) | GI50 (SN12C renal) | TGI (SN12C renal) | GI50 (HL-60(TB) leukemia) | TGI (HL-60(TB) leukemia) | GI50 (HCT-116 colon) | TGI (HCT-116 colon) | GI50 (SK-MEL-28 melanoma) | TGI (SK-MEL-28 melanoma) | GI50 (HCT-15 colon) | TGI (HCT-15 colon) | GI50 (HOP-62 NSCLC) | TGI (HOP-62 NSCLC) | GI50 (CCRF-CEM leukemia) | TGI (CCRF-CEM leukemia)
CCc1ccc(/C(C#N)=C/C=C/c2ccccc2)cc1 | 2.62 µM | > 100 µM | 8.41 µM | > 100 µM | 3.48 µM | > 100 µM | 10.6 µM | > 100 µM | 2.54 µM | > 62.9 µM | 1.93 µM | > 100 µM | 7.12 µM | > 100 µM | 0.897 µM | > 83.9 µM | 2.83 µM | > 100 µM | 3.11 µM | > 100 µM
COc1ccccc1/C=C1\CCC(CN(C)C)C1=O (centres undefined) |  | 40.6 µM |  | 15.2 µM |  | 13.9 µM |  | 13.3 µM |  | 6.68 µM |  | 18.1 µM |  | 12.2 µM |  | 7.85 µM |  | 36.4 µM |  | 8.47 µM
CC(C)[C@@H]1NC(=O)[C@]2(C)CSC(=N2)c2csc(n2)CNC(=O)C[C@@H](/C=C/CCS)OC1=O | 0.0383 µM | 20.9 µM | 1.75 µM | 9.12 µM | 0.0477 µM | 0.28 µM | 0.403 µM | > 100 µM | 0.361 µM | > 100 µM | 0.123 µM | 1.08 µM | 0.0564 µM | 7.01 µM | 5.12 µM | > 100 µM | 0.0453 µM | > 29.1 µM | 0.276 µM | > 100 µM
N#Cc1cc(-c2ccccc2)[nH]c1-c1nccc2ccccc12 | 13.9 µM | > 100 µM | 18.5 µM | > 100 µM | 7.36 µM | > 100 µM | 23.9 µM | > 100 µM | 8.52 µM | 82.6 µM | 9.13 µM | > 100 µM | 26.5 µM | > 100 µM | 20.6 µM | > 100 µM | 29 µM | > 100 µM | 14 µM | > 100 µM
Nc1nn(C(=O)Nc2ccc(Cc3ccccc3)cc2)c2ccc(Cl)cc12 | 5.76 µM | > 89.2 µM | 0.0646 µM | 26.4 µM | 0.0397 µM | > 100 µM | 14.2 µM | 48.1 µM | 6.57 µM | 44.6 µM | 0.354 µM | 24.2 µM | 7.91 µM | > 100 µM | 0.0821 µM | > 100 µM | 1.33 µM | 14.8 µM | 3.08 µM | > 58.7 µM
Cn1c(=O)c(Sc2ccccc2F)cc2cnc(NC3CCOCC3)nc21 | > 25 µM | > 25 µM | > 25 µM | > 25 µM | > 25 µM | > 25 µM | > 25 µM | > 25 µM | > 25 µM | > 25 µM | > 25 µM | > 25 µM | > 25 µM | > 25 µM | > 25 µM | > 25 µM | > 25 µM | > 25 µM | > 25 µM | > 25 µM
O=c1oc2c(Br)c(O)c(Br)cc2c2ccccc12 |  | 87.1 µM |  | > 100 µM |  | 50.5 µM |  | 84.4 µM |  | 52.3 µM |  | 92.6 µM |  | > 100 µM |  | 42.9 µM |  | > 100 µM |  | 65.4 µM
NC(=O)c1cccc(N)c1 | > 100 µM | > 100 µM | > 100 µM | > 100 µM | > 100 µM | > 100 µM | > 100 µM | > 100 µM | > 100 µM | > 100 µM | > 100 µM | > 100 µM | > 100 µM | > 100 µM | > 100 µM | > 100 µM | > 100 µM | > 100 µM | > 100 µM | > 100 µM
COc1cccc(C2=NN(C(C)=O)C(c3cc(OC)c(OC)c(OC)c3)C2)c1 (centres undefined) | 6.15 µM | > 100 µM | 16 µM | > 100 µM | 3.85 µM | > 100 µM | 5.69 µM | > 100 µM | 1.55 µM | 6.51 µM | 2.59 µM | > 100 µM | > 22.8 µM | > 100 µM | 1.42 µM | > 100 µM | 0.827 µM |  | 0.921 µM | 5.61 µM
Cc1nc(NC(=O)COc2cccc(/C=C3\COc4ccccc4C3=O)c2)sc1C | 3.7 µM | 12.4 µM | 1.85 µM | 3.77 µM | 2.05 µM | 4.51 µM | 2.01 µM | 4.63 µM | 2.8 µM | > 29.9 µM | 1.53 µM | 3.04 µM | 1.79 µM | 3.32 µM | 2.04 µM | 5.2 µM | 1.71 µM | 3.37 µM | 3.42 µM | > 100 µM
O=C(O[C@H]1CN[C@H](C#Cc2cc3ncnc(Nc4ccc(Cc5ccccc5)cc4)c3s2)C1)N1CCOCC1 | 4.86 µM | > 25 µM | 3.53 µM | > 25 µM | 6.25 µM | > 23.5 µM | 4.08 µM | > 25 µM | 5.5 µM | 17.1 µM | 4.03 µM | 8.16 µM | 4.78 µM | 10.9 µM | 7.08 µM | > 25 µM | 5.15 µM | > 14.1 µM | 6.98 µM | > 25 µM
COC(=O)c1c2c(c[n+]([O-])c1C)C(=O)C(NCc1ccccc1)=CC2=O | 1.12 µM | 3.61 µM | 1.02 µM | 2.2 µM | 0.334 µM | 1.06 µM | 0.318 µM | 1.22 µM | 0.256 µM | 0.667 µM | 0.269 µM | 0.924 µM | 1.6 µM | 3.29 µM | 0.354 µM | 1.53 µM | 1.42 µM | 2.94 µM | 0.512 µM | > 25.8 µM
COc1ccc(S(=O)(=O)Nc2cc(/C=C\c3cc(OC)c(OC)c(OC)c3)cc(OC)c2OC)cc1OC | 1.31 µM | > 100 µM | 0.928 µM | > 100 µM | 0.494 µM | > 100 µM | 1.18 µM | > 100 µM | 0.37 µM | > 100 µM | 0.469 µM | > 100 µM | 3.27 µM | 61.3 µM | 0.671 µM | > 100 µM | 17.6 µM | > 100 µM | 0.349 µM | > 100 µM
